Entries after “also recorded” stand apart in the source; their conditions may differ.
Experiments:
[1] = Clinical ophthalmic examination in monkeys (vitreal cell scores, anterior chamber inflammation); type: in vivo, cynomolgus monkeys (Macaca fascicularis); details: for Vitreal cell score: number of eyes with grade 0 / Vitreal cell score: number of eyes with grade 1 / Vitreal cell score: number of eyes with grade 2 / Vitreal cell score: number of eyes with grade 3 / Vitreal cell score: number of eyes with grade 4 / Vitreal cell score: number of eyes with grade Trace: intravitreal days 1 and 15, cells not distinguishable from dispersed drug
Method: Once the phase Ib study was completed, and it was established that the drug suspension in oil would not interfere with either laser administration, evaluation of CNV or cause adverse effects, phase II was initiated. On days 1, and 15 both eyes of monkeys received 50 μL of Lucentis (0.5 mg/eye), vehicle (0 mg/eye), BOL-303050-X (1.5 mg/eye), BOL-303054-X (1.5 mg/eye) or BOL-303055-X (1.5 mg/eye) (Table 2). Intravitreous injection was performed for each by eye aiming towards mid-vitreous body. Dosing in the right eye was alternated for successive doses (as applicable) at approximately the 11 o'clock and 10 o'clock positions. Dosing in the left eye was alternated for successive doses (as applicable) from approximately the 1 o'clock and 2 o'clock positions.
Animals were examined at baseline, on days 1, 3, 7, 15, and 31 of Dosing Phase II and on the day of scheduled sacrifice (day 38). On days of dose administration the ophthalmic examination was done prior to dosing.

[2] = Ocular clinical findings in rats 14 days after intravitreal injection; details: for Eyes with anterior chamber inflammation/Total eyes / Eyes with retinal vascular congestion/vessel-observable eyes: Day 14, 200 μg/eye intravitreal
Method: The anterior segment of the eye was examined using a slit-lamp biomicroscopy for excluding any animals with abnormalities that might interfere with the study. Fundus photography and fluorescein angiography (FA) were performed to document the health of the retina and the ocular circulation using a TRC 50EX fundus camera (Topcon). For FA, 10% sodium fluorescein was injected intravenously (50 mg/kg of body weight) through the tail vein or the vein under the incisor before the procedure.
Immediately after placement of laser photocoagulation, the experimental eyes received an intravitreal injection of either a compound or a vehicle as described in Table 5. Following the disinfection of ocular surface with 5% betadine and 0.9% saline solutions, the injections were performed with aid of a surgical microscope using 0.3 mL syringes with a 31-gauge ½-inch long needle (Ultra-Fine II™ Insulin syringe, BD, Franklin Lakes, N.J.).
Two weeks after photocoagulation, all rats were examined under anesthesia and pupil dilation with slit-lamp biomicroscopy, fundus photography and FA as described in the baseline examination.

[3] = test system: human retinal endothelial cells (HREC); test: Testing 4: VEGF-induced HREC proliferation (MTS assay), Avastin with or without BOL-303050-X; type: cell-based; details: for HREC proliferation in the presence of VEGF, compound alone: VEGF 10 ng/ml, 3 days
Method: HREC were first cultured overnight in a 96-well plate coated with fibronectin. The next day, cells were serum-starved for 2 hours before treatment. […] The cells were then cultured at 37° C., 5% CO2, and 95% humidity for another 3 days.
A 96-well plate was coated with human fibronectin (10 μg/ml) at 37° C. for 5 h. HREC were collected from flasks by EDTA-trypsin treatment and re-suspended in 10% FBS CS-C medium at 18,000 cells/ml. Cells (200 μl/well) were added to the plate and cultured overnight at 37° C., 5% CO2, and 95% humidity. The next day, medium was aspirated and 200 μl/well serum-free medium was added for 2 h at 37° C., 5% CO2, and 95% humidity.
Normal IgG was added in such a way that all groups contained the same amount of IgG proteins. All medium solutions were incubated for 1 h at 37° C., 5% CO2, and 95% humidity. After carefully aspirating the medium from cells, 200 μl of the medium containing different agents were added into appropriate wells. The cells were further cultured for 3 days.
At the end of incubation, the medium was carefully aspirated from cells and 120 μl of MTS working solution was added into all wells including four blank wells (without cells). The plate was incubated at 37° C., 5% CO2, and 95% humidity for 1 hour and then read by a plate reader at 490 nm wavelength.
Median optical density (OD) was generated from different groups. Data were expressed as mean±SEM of the OD values. Statistical analysis was performed using two-way ANOVA followed by the contrast procedure after Box-Cox transformations if needed, and p<0.05 was considered statistically significant. […] All the data from the individual wells were fitted to a re-parameterized four-parameter logistic equation to obtain IC50 using similar methodology as that previously described and utilizing the statistical analysis software JMP (SAS Institute, Cary, N.C.).

[4] = test system: laser-induced CNV in rats; test: Laser-induced choroidal neovascularization in rats (CNV area, fluorescein angiography grades); type: in vivo, Brown Norway rats; details: day 14, 200 μg/eye (echistatin 5 μg, Avastin 125 μg); for CNV area / development of CNV on isolectin IB4-labeled flat mounts compared to vehicle-treated controls / Mean score of fluorescein leakage (FA score) compared to vehicle-treated controls: one intravitreal injection after laser; for Number of lesions in FA grade 1 / Number of lesions in FA grade 2 / Number of lesions in FA grade 3 / Number of lesions in FA grade 4: unobstructed lesions
Method: Fifty six male Brown Norway rats, approximately 200-300 grams of body weight and two months of age, were used in this study. This study was performed in two cohorts and only one eye of each rat was used.
The pupils were dilated and then the rats were anesthetized as described in baseline examination. The rats were positioned in front of a slit lamp system (Haag-Streit USA, Mason, Ohio). […] A diode laser (OcuLight TX, IRIDEX, Mountain View, Calif.) was used for photocoagulation (532 nm wavelength, 120 mW power, 50 μm spot size and 0.05 seconds duration). For each right eye, a series of six photocoagulation sites were concentrically placed between the major retinal vessels at equal distance (about two optic discs) around the optic nerve head. […] If a significant retinal or subretinal hemorrhage occurred during the laser photocoagulation, then the left eye was be photocoagulated and used as the experimental eye.
Grade 1 lesions had no hyperfluorescence.
The eyes were collected on day 14 and immediately fixed in 4% paraformaldehyde in PBS (pH 7.4) for one and half hours, and then transferred into cold PBS and kept at 4° C. for further processing.
The incubation was performed in a humidified dark chamber with gentle rotation at 4° C. overnight. On the second day, the retinal pigment epithelium (RPE)-choroidsclera complexes were washed with cold IHC buffer, mounted with ProLong® Gold antifade reagent, covered with circular cover glass, and sealed with clear nail polish. Fluorescent images were collected with a confocal microscope (FluoView FV 1000 confocal microscope, Olympus, Center Valley, Pa.) and a 4×, 0.16 numerical aperture objective lens. […] The laser sites were identified by merging images of the green (phalloidin labeling RPE) and the red (isolectin IB4 labeling CNV) channels. CNV complexes were identified using the red channel (isolectin), and their areas were quantified using the FluoView software (Version 1.7a).
Average FA scores and areas of CNV complexes in each group were presented as mean±SEM, unless otherwise indicated. They were analyzed using a one-way ANOVA followed by a Tukey-Kramer test after Box-Cox transformations. All statistics were performed utilizing the statistical analysis software JMP (SAS Institute, Cary, N.C.). p values ≦0.05 were considered statistically significant.

## COc1ccc(S(=O)(=O)N[C@@H](CNc2nc(C)nc(N3CCC(c4ccc5c(n4)NCCC5)CC3)c2C)C(=O)O)cc1 [BOL-303050-X]
[1]; Day 3
  Vitreal cell score: number of eyes with grade 0: 8
  Vitreal cell score: number of eyes with grade 1: 5
  Vitreal cell score: number of eyes with grade 2: 0
  Vitreal cell score: number of eyes with grade 3: 0
  Vitreal cell score: number of eyes with grade 4: 1
  Vitreal cell score: number of eyes with grade Trace: 4
[1]; Day 7
  Vitreal cell score: number of eyes with grade 0: 1
  Vitreal cell score: number of eyes with grade 1: 4
  Vitreal cell score: number of eyes with grade 2: 6
  Vitreal cell score: number of eyes with grade 3: 2
  Vitreal cell score: number of eyes with grade 4: 5
  Vitreal cell score: number of eyes with grade Trace: 0
[1]; Day 15
  Vitreal cell score: number of eyes with grade 0: 1
  Vitreal cell score: number of eyes with grade 1: 8
  Vitreal cell score: number of eyes with grade 2: 2
  Vitreal cell score: number of eyes with grade 3: 1
  Vitreal cell score: number of eyes with grade 4: 4
  Vitreal cell score: number of eyes with grade Trace: 2
[1]; Day 31
  Vitreal cell score: number of eyes with grade 0: 0
  Vitreal cell score: number of eyes with grade 1: 2
  Vitreal cell score: number of eyes with grade 2: 1
  Vitreal cell score: number of eyes with grade 3: 1
  Vitreal cell score: number of eyes with grade 4: 11
  Vitreal cell score: number of eyes with grade Trace: 0
[1]; Day 38
  Vitreal cell score: number of eyes with grade 0: 0
  Vitreal cell score: number of eyes with grade 1: 1
  Vitreal cell score: number of eyes with grade 2: 0
  Vitreal cell score: number of eyes with grade 3: 3
  Vitreal cell score: number of eyes with grade 4: 12
  Vitreal cell score: number of eyes with grade Trace: 0
[1]; oil formulation, 1.5 mg/eye intravitreal
  Drug-related ocular findings: No drug-related ocular findings were reported
[2]
  Eyes with anterior chamber inflammation/Total eyes: 0/6
  Eyes with retinal vascular congestion/vessel-observable eyes: 0/5
[2]; Day 14 after intravitreal injection
  Intraocular inflammation and retinal vascular congestion: Neither inflammation nor retinal vascular congestion was observed
[3]; 1 nM
  HREC proliferation in the presence of VEGF, compound alone: significantly reduced
[3]; 10 nM
  HREC proliferation in the presence of VEGF, compound alone: significantly reduced
[3]; 1 and 10 nM tested, no VEGF
  HREC proliferation under basal conditions: significant effects were only observed at 10 nM
[3]; compound 1 nM, Avastin 30 to 300 ng/ml
  Combination effect with Avastin on VEGF-induced HREC proliferation (synergistic/additive): synergistic effects
[3]; compound 10 nM, Avastin at all doses
  Combination effect with Avastin on VEGF-induced HREC proliferation (synergistic/additive): additive effect
[3]; compound at 1 and 10 nM
  Improvement of the potency of Avastin: 6- to 7 fold
[4]
  CNV area / development of CNV on isolectin IB4-labeled flat mounts compared to vehicle-treated controls: completely inhibited in a small portion of lesions; also recorded: smaller area of CNV
  Mean score of fluorescein leakage (FA score) compared to vehicle-treated controls: smaller means
  Number of lesions in FA grade 1: 6
  Number of lesions in FA grade 2: 12
  Number of lesions in FA grade 3: 4
  Number of lesions in FA grade 4: 2

## COc1c(NC[C@H](NC(=O)OCc2ccccc2)C(=O)O)ncnc1N1CCC(c2ccc3c(n2)NCCC3)CC1 [BOL-303054-X]
[1]; Day 3
  Vitreal cell score: number of eyes with grade 0: 9
  Vitreal cell score: number of eyes with grade 1: 1
  Vitreal cell score: number of eyes with grade 2: 1
  Vitreal cell score: number of eyes with grade 3: 0
  Vitreal cell score: number of eyes with grade 4: 0
  Vitreal cell score: number of eyes with grade Trace: 5
[1]; Day 7
  Vitreal cell score: number of eyes with grade 0: 2
  Vitreal cell score: number of eyes with grade 1: 2
  Vitreal cell score: number of eyes with grade 2: 2
  Vitreal cell score: number of eyes with grade 3: 4
  Vitreal cell score: number of eyes with grade 4: 6
  Vitreal cell score: number of eyes with grade Trace: 2
[1]; Day 15
  Vitreal cell score: number of eyes with grade 0: 0
  Vitreal cell score: number of eyes with grade 1: 6
  Vitreal cell score: number of eyes with grade 2: 2
  Vitreal cell score: number of eyes with grade 3: 0
  Vitreal cell score: number of eyes with grade 4: 8
  Vitreal cell score: number of eyes with grade Trace: 0
[1]; Day 31
  Vitreal cell score: number of eyes with grade 0: 0
  Vitreal cell score: number of eyes with grade 1: 1
  Vitreal cell score: number of eyes with grade 2: 8
  Vitreal cell score: number of eyes with grade 3: 2
  Vitreal cell score: number of eyes with grade 4: 6
  Vitreal cell score: number of eyes with grade Trace: 1
[1]; Day 38
  Vitreal cell score: number of eyes with grade 0: 0
  Vitreal cell score: number of eyes with grade 1: 0
  Vitreal cell score: number of eyes with grade 2: 3
  Vitreal cell score: number of eyes with grade 3: 2
  Vitreal cell score: number of eyes with grade 4: 13
  Vitreal cell score: number of eyes with grade Trace: 0
[1]; left eye of one monkey that developed endophthalmitis on day 29, until day 38
  Anterior chamber inflammation: Moderate anterior chamber inflammation
[2]
  Eyes with anterior chamber inflammation/Total eyes: 4/6
  Eyes with retinal vascular congestion/vessel-observable eyes: 4/5
[4]
  Number of lesions in FA grade 1: 0
  Number of lesions in FA grade 2: 0
  Number of lesions in FA grade 3: 5
  Number of lesions in FA grade 4: 1

## bevacizumab [Avastin, reference compound]
[3]; 3-300 ng/ml, significant from 10 ng/ml
  Inhibition of VEGF-induced HREC proliferation by Avastin alone: dose-dependent inhibition
[3]; in the presence of BOL-303050-X 1 nM
  IC50 of Avastin on VEGF-induced HREC proliferation: 0.015 µg/mL
[3]; in the presence of BOL-303050-X 10 nM
  IC50 of Avastin on VEGF-induced HREC proliferation: 0.013 µg/mL
[4]
  CNV area / development of CNV on isolectin IB4-labeled flat mounts compared to vehicle-treated controls: did not inhibit the development of CNV
  Mean score of fluorescein leakage (FA score) compared to vehicle-treated controls: smaller means
  Number of lesions in FA grade 2: 7
  Number of lesions in FA grade 4: 15
